According to ChEMBL document CHEMBL6127076, “Scaffold hopping-driven optimization for the identification of NLRP3 inhibitors as potential gout therapeutics” (Eur J Med Chem, 2024):
Values after ≈ are worked out from the molar mass of the structure shown. Active and inactive are the calls of the source. The rule behind the calls is not given here.

Legend:
[1] = Inhibition of NLRP3 inflammasome pathway in human THP-1 cells assessed as inhibition of LPS/MSU-induced IL-1beta secretion
[2] = Plasma stability in human plasma assessed as compound remaining measured immediately; assay type: ADME, cell-free; conditions: read-out: Stability
Cytochrome P450 2C9 = Cytochrome P450 2C9 (Homo sapiens, UniProt P11712); experiment: Inhibition of CYP2C9 (unknown origin); assay type: ADME
Chain of Cytochrome P450 2C9 (P11712 whole entry): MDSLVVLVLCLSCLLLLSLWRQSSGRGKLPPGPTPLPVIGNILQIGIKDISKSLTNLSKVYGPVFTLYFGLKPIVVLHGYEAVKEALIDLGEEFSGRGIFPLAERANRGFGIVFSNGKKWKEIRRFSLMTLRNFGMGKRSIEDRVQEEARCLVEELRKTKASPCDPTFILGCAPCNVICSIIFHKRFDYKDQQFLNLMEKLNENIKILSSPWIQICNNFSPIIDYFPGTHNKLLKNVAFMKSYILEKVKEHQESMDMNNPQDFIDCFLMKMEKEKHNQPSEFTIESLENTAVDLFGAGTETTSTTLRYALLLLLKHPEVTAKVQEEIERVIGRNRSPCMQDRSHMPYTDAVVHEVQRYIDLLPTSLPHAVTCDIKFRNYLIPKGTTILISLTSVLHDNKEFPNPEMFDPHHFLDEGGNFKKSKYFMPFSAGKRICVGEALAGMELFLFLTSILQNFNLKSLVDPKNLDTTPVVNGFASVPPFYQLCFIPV

Cytochrome P450 3A4 [3] = biological target: T1, Cytochrome P450 3A4 (Homo sapiens, UniProt P08684); experiment: Inhibition of CYP3A4 (unknown origin) using midazolam as substrate; assay type: ADME
T1 sequence (P08684 whole entry): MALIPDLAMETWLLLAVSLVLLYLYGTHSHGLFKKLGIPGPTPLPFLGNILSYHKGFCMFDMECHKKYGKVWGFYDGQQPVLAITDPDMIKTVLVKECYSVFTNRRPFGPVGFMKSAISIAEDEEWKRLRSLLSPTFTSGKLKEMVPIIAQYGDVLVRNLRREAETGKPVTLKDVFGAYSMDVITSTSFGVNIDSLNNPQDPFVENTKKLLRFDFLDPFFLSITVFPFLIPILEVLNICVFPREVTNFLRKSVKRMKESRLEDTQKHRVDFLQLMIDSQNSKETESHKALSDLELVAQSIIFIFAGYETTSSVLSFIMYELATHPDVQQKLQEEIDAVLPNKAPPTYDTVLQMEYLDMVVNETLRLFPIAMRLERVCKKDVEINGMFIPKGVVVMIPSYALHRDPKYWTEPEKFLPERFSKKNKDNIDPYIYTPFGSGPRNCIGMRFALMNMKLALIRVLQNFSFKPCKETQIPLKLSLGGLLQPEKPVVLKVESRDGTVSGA

[4] = Plasma stability in human plasma assessed as compound remaining measured after 60 mins; assay type: ADME, cell-free; conditions: read-out: Stability
Cytochrome P450 2D6 = Cytochrome P450 2D6 (Homo sapiens, UniProt P10635); experiment: Inhibition of CYP2D6 (unknown origin); assay type: ADME
Chain of Cytochrome P450 2D6 (P10635 whole entry): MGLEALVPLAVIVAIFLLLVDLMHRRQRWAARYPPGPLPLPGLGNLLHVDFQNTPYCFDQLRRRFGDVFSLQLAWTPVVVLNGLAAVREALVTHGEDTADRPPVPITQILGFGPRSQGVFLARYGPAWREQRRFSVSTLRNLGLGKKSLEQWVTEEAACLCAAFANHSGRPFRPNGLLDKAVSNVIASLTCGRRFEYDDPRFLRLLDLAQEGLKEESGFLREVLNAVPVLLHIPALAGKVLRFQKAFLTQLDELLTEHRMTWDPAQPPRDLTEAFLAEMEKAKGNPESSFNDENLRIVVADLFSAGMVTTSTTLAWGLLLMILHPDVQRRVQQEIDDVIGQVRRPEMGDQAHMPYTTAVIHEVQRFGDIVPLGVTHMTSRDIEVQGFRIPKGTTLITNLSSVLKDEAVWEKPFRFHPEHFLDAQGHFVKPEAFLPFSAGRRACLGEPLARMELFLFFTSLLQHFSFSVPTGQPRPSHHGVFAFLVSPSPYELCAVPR

[5] = Aqueous solubility of the compound in pH 7.4 PBS buffer; assay type: physicochemical
[6] = Plasma stability in human plasma assessed as compound remaining measured after 30 mins; assay type: ADME, cell-free; conditions: read-out: Stability
Cytochrome P450 1A2 = biological target: T2, Cytochrome P450 1A2 (Homo sapiens, UniProt P05177); experiment: Inhibition of CYP1A2 (unknown origin); assay type: ADME
T2 sequence (P05177 whole entry): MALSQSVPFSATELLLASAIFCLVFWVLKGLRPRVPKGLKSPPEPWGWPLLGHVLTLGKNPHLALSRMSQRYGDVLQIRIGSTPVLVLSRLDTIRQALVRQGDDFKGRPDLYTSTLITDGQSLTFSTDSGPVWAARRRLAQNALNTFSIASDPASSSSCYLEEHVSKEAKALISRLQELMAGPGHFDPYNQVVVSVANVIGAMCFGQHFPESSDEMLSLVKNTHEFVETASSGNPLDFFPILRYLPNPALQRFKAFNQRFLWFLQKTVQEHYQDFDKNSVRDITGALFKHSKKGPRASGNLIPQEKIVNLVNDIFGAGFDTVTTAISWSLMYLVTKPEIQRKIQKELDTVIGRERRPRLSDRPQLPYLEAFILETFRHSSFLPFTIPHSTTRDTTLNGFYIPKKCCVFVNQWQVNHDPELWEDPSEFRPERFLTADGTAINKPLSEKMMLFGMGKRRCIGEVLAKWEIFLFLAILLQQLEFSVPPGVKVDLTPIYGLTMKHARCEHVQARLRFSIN

[7] = Plasma stability in human plasma assessed as compound remaining measured after 15 mins; assay type: ADME, cell-free; conditions: read-out: Stability
Cytochrome P450 2C19 = Cytochrome P450 2C19 (Homo sapiens, UniProt P33261); experiment: Inhibition of CYP2C19 (unknown origin); assay type: ADME
Chain of Cytochrome P450 2C19 (P33261 whole entry): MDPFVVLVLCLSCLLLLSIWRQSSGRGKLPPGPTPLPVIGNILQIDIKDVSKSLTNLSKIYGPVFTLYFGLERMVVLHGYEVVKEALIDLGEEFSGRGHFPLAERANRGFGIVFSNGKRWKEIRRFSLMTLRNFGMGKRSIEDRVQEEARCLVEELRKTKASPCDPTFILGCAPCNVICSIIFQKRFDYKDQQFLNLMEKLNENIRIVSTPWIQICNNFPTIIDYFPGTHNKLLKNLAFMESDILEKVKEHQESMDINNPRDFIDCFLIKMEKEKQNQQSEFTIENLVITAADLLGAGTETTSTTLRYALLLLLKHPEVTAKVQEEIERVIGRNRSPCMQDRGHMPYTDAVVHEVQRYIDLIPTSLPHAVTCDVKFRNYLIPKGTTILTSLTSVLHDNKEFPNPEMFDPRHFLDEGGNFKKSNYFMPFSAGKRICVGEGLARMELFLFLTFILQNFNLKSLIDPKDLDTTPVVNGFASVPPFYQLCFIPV

Cytochrome P450 3A4 [8] = biological target: T1, Cytochrome P450 3A4; experiment: Inhibition of CYP3A4 (unknown origin) using testosterone as substrate; assay type: ADME
[9] = Plasma stability in human plasma assessed as compound remaining measured after 5 mins; assay type: ADME, cell-free; conditions: read-out: Stability
HEK-293T = experiment: Cytotoxicity against human HEK293T cells assessed as cell viability at 50 uM measured after 24 hrs by CCK8 assay; assay type: toxicity, cell-based
[10] = Plasma stability in human plasma assessed as compound remaining measured after 120 mins; assay type: ADME, cell-free; conditions: read-out: Stability
[11] = Plasma stability in human plasma assessed as half life; assay type: ADME, cell-free
Mus musculus = experiment: Anti-inflammatory activity against MSU-induced peritonitis mouse model assessed as reduction in IL-1beta secretion in peritoneal cavity at 10 mg/kg, treated by gavage 30 mins before MSU induction measured after 6 hrs modeling by ELISA; assay type: functional, organism-based

Structure (SMILES): C=C1C(=O)[C@]23[C@H](O)[C@H]1CC[C@H]2[C@@]12CO[C@]3(O)[C@@H](O)[C@@H]1C(C)(C)CC[C@@H]2O [ORIDONIN]
- IC50 [1]: 1.9 µM

Structure (SMILES): CC1(C)C(=O)N(c2cccnc2)C(=S)N1Cc1ccc(S(N)(=O)=O)c(F)c1
- IC50 [1]: > 20 µM

Structure (SMILES): COc1ccccc1N1C(=O)C(C)(C)N(Cc2ccc(C)c(C)c2)C1=S
- IC50 [1]: > 20 µM

Structure (SMILES): CC1(C)C(=O)N(c2cc(C(F)(F)F)cc(C(F)(F)F)c2)C(=S)N1Cc1ccc(S(N)(=O)=O)c(F)c1
- remaining at 0 min [2]: 100%
- IC50 (Cytochrome P450 2C9): 10.2 µM
- IC50 (Cytochrome P450 3A4 [3]): > 10 µM
- remaining at 1 h [4]: 100%
- IC50 (Cytochrome P450 2D6): > 10 µM
- solubility [5]: 14 µM (≈ 7.61 µg/mL)
- remaining at 0.5 h [6]: 93.3%
- IC50 (Cytochrome P450 1A2): > 100 µM
- remaining at 0.25 h [7]: 98.8%
- IC50 (Cytochrome P450 2C19): > 10 µM
- IC50 (Cytochrome P450 3A4 [8]): > 10 µM
- IC50 [1]: 8.3 µM
- remaining at 5 min [9]: 91.3%
- Activity (HEK-293T): Toxic
- remaining at 2 h [10]: 91.8%

Structure (SMILES): Cc1ccc(CN2C(=S)N(c3cccc(OCc4ccccc4)c3)C(=O)C2(C)C)cc1C
- IC50 [1]: > 20 µM

Structure (SMILES): COc1ccc(CN2C(=S)N(c3ccc(C(C)(C)C)cc3)C(=O)C2(C)C)cc1F
- IC50 [1]: 13.9 µM

Structure (SMILES): COc1ccc(N2C(=O)C(C)(C)N(Cc3ccc(-c4ccccc4C#N)cc3)C2=S)cc1
- IC50 [1]: > 20 µM

Structure (SMILES): COc1ccc(N2C(=O)C(C)(C)N(C(=O)c3ccccc3C(F)(F)F)C2=S)cc1
- IC50 [1]: > 50 µM

Structure (SMILES): CC(C)[N+](C)(CCOC(=O)C1c2ccccc2Oc2ccccc21)C(C)C [PROPANTHELINE]
- remaining at 1 h [4]: 10.7%
- remaining at 0.5 h [6]: 37.4%
- remaining at 0.25 h [7]: 58.5%
- half-life [11]: 0.387 h
- remaining at 5 min [9]: 88%
- remaining at 2 h [10]: 2.91%

Structure (SMILES): COc1ccc(N2C(=O)C(C)(C)N(Cc3cccc(C(F)(F)F)c3)C2=S)cc1
- IC50 [1]: > 20 µM

Structure (SMILES): CC(C)(C)c1ccc(N2C(=O)C(C)(C)N(Cc3ccc(C(=O)O)cc3)C2=S)cc1
- IC50 [1]: > 20 µM

Structure (SMILES): CC(C)NCC(O)COc1cccc2ccccc12 (stereo not given) [PROPRANOLOL]
- solubility [5]: 91.2 µM (≈ 23.7 µg/mL)

Structure (SMILES): COc1ccc(N2C(=O)/C(=C/c3ccccc3C(F)(F)F)SC2=S)cc1
- remaining at 0 min [2]: 100%
- IC50 (Cytochrome P450 2C9): 4.65 µM
- IC50 (Cytochrome P450 3A4 [3]): > 10 µM
- remaining at 1 h [4]: 4.34%
- IC50 (Cytochrome P450 2D6): > 10 µM
- solubility [5]: 0.012 µM (≈ 0.00475 µg/mL)
- remaining at 0.5 h [6]: 23.9%
- IC50 (Cytochrome P450 1A2): 5.2 µM
- remaining at 0.25 h [7]: 106%
- half-life [11]: 0.338 h
- IC50 (Cytochrome P450 2C19): 6.87 µM
- IC50 (Cytochrome P450 3A4 [8]): > 10 µM
- remaining at 5 min [9]: 112%
- remaining at 2 h [10]: 3.67%

Structure (SMILES): COc1ccc(N2C(=O)C(C)(C)N(Cc3cc(C(F)(F)F)ccc3C(F)(F)F)C2=S)cc1
- IC50 [1]: > 20 µM

Structure (SMILES): COc1ccc(N2C(=O)C(C)(C)N(Cc3ccc(C)c(C)c3)C2=S)cc1
- remaining at 0 min [2]: 100%
- IC50 (Cytochrome P450 2C9): 4.57 µM
- IC50 (Cytochrome P450 3A4 [3]): > 10 µM
- remaining at 1 h [4]: 102%
- IC50 (Cytochrome P450 2D6): > 10 µM
- solubility [5]: 0.017 µM (≈ 0.00626 µg/mL)
- remaining at 0.5 h [6]: 96.2%
- IC50 (Cytochrome P450 1A2): > 100 µM
- remaining at 0.25 h [7]: 105%
- IC50 (Cytochrome P450 2C19): 2.95 µM
- IC50 (Cytochrome P450 3A4 [8]): > 10 µM
- IC50 [1]: 6.9 µM
- remaining at 5 min [9]: 98.9%
- Activity (HEK-293T): Toxic
- remaining at 2 h [10]: 102%

Structure (SMILES): CC1(C)C(=O)N(c2ccc(Oc3ccccc3)cc2)C(=S)N1Cc1ccc(S(N)(=O)=O)c(F)c1
- remaining at 0 min [2]: 100%
- IC50 (Cytochrome P450 2C9): 7.73 µM
- IC50 (Cytochrome P450 3A4 [3]): > 10 µM
- remaining at 1 h [4]: 101%
- IC50 (Cytochrome P450 2D6): > 10 µM
- solubility [5]: 2.56 µM (≈ 1.28 µg/mL)
- remaining at 0.5 h [6]: 92.3%
- IC50 (Cytochrome P450 1A2): > 100 µM
- remaining at 0.25 h [7]: 101%
- IC50 (Cytochrome P450 2C19): 4.43 µM
- IC50 (Cytochrome P450 3A4 [8]): > 10 µM
- IC50 [1]: 5.3 µM
- remaining at 5 min [9]: 97.2%
- Activity (HEK-293T): Toxic
- remaining at 2 h [10]: 93.3%

Structure (SMILES): CC(C)(O)c1coc(S(=O)(=O)NC(=O)Nc2c3c(cc4c2CCC4)CCC3)c1
- Activity (Mus musculus): Active

Structure (SMILES): CC(C)(C)c1ccc(N2C(=O)C(C)(C)N(Cc3ccc(C#N)c(Cl)c3)C2=S)cc1
- IC50 [1]: > 20 µM

Structure (SMILES): CC(C)(C)c1ccc(N2C(=O)C(C)(C)N(Cc3ccc4ncoc4c3)C2=S)cc1
- IC50 [1]: > 20 µM

Structure (SMILES): COc1ccc(N2C(=O)C(C)(C)N(Cc3ccc(C(C)C)cc3)C2=S)cc1
- IC50 [1]: 15.7 µM

Structure (SMILES): COc1ccc(N2C(=O)C(C)(C)N(Cc3ccc(Br)c(C)c3)C2=S)cc1
- remaining at 0 min [2]: 100%
- IC50 (Cytochrome P450 2C9): 6.15 µM
- IC50 (Cytochrome P450 3A4 [3]): > 10 µM
- remaining at 1 h [4]: 105%
- IC50 (Cytochrome P450 2D6): > 10 µM
- solubility [5]: 0.032 µM (≈ 0.0139 µg/mL)
- remaining at 0.5 h [6]: 104%
- IC50 (Cytochrome P450 1A2): > 100 µM
- remaining at 0.25 h [7]: 96.6%
- half-life [11]: 299 h
- IC50 (Cytochrome P450 2C19): 1.4 µM
- IC50 (Cytochrome P450 3A4 [8]): > 10 µM
- IC50 [1]: 10.1 µM
- remaining at 5 min [9]: 99.2%
- Activity (HEK-293T): Toxic
- remaining at 2 h [10]: 97.3%

Structure (SMILES): COc1ccc(N2C(=O)C(C)(C)N(Cc3ccc(C(F)(F)F)cc3)C2=S)cc1
- IC50 [1]: 13 µM

Structure (SMILES): COc1ccc(N2C(=O)C(C)(C)N(Cc3ccccc3C(F)(F)F)C2=S)cc1
- IC50 [1]: 29.2 µM

Structure (SMILES): c1ccc(-c2nc[nH]c2-c2ccccc2)cc1
- solubility [5]: 13.6 µM (≈ 3 µg/mL)

Structure (SMILES): Cc1ccc(CN2C(=S)N(c3ccc(C(C)(C)C)cc3)C(=O)C2(C)C)cc1C
- remaining at 0 min [2]: 100%
- IC50 (Cytochrome P450 2C9): > 10 µM
- IC50 (Cytochrome P450 3A4 [3]): > 10 µM
- remaining at 1 h [4]: 113%
- IC50 (Cytochrome P450 2D6): > 10 µM
- solubility [5]: 0.089 µM (≈ 0.0351 µg/mL)
- remaining at 0.5 h [6]: 102%
- IC50 (Cytochrome P450 1A2): > 100 µM
- remaining at 0.25 h [7]: 103%
- half-life [11]: 32.4 h
- IC50 (Cytochrome P450 2C19): 5.64 µM
- IC50 (Cytochrome P450 3A4 [8]): > 10 µM
- IC50 [1]: 4.3 µM
- remaining at 5 min [9]: 99.8%
- Activity (HEK-293T): Toxic
- remaining at 2 h [10]: 93.6%

Structure (SMILES): CCCSc1ccc2nc(NC(=O)OC)[nH]c2c1 [ALBENDAZOLE]
- solubility [5]: 1.65 µM (≈ 0.438 µg/mL)

Structure (SMILES): Cc1ccc(CN2C(=S)N(c3ccc(C#N)c(C(F)(F)F)c3)C(=O)C2(C)C)cc1C
- IC50 [1]: > 20 µM

Structure (SMILES): COc1ccc(N2C(=O)C(C)(C)N(Cc3ccc(C)cc3)C2=S)cc1
- IC50 [1]: > 20 µM

Structure (SMILES): CC(C)(C)c1ccc(N2C(=O)C(C)(C)N(Cc3ccc(S(N)(=O)=O)c(F)c3)C2=S)cc1
- remaining at 0 min [2]: 100%
- IC50 (Cytochrome P450 2C9): > 10 µM
- IC50 (Cytochrome P450 3A4 [3]): > 10 µM
- remaining at 1 h [4]: 100%
- IC50 (Cytochrome P450 2D6): > 10 µM
- solubility [5]: 19.3 µM (≈ 8.95 µg/mL)
- remaining at 0.5 h [6]: 98.2%
- IC50 (Cytochrome P450 1A2): > 100 µM
- remaining at 0.25 h [7]: 89.8%
- half-life [11]: 10 h
- IC50 (Cytochrome P450 2C19): > 10 µM
- IC50 (Cytochrome P450 3A4 [8]): > 10 µM
- IC50 [1]: 6.4 µM
- remaining at 5 min [9]: 96.7%
- Activity (HEK-293T): Toxic
- remaining at 2 h [10]: 82.5%

Structure (SMILES): COc1cccc(N2C(=O)C(C)(C)N(Cc3ccc(C)c(C)c3)C2=S)c1
- IC50 [1]: > 20 µM
